From US5525626A (priority 1989, dated 1996) come the findings set out here.

Each structure is given as a SMILES string. “Also recorded” adds a separate entry of the source.

As usually defined, the inhibition is the share of the control response that was lost under treatment.

Data set [1] has as its system Onco Mouse mammary glands-neoplasms. The data set can be described thus: chemoprevention in transgenic mice (mammary glands-neoplasms). In kind it is in vivo. The note with it: 200 μM/ml in drinking water. How it is done:
The chemopreventive properties of 7-OH-1,2-BP were tested on transgenic mice of the Onco Mouse™ type (mammary glands-neoplasms): […]

In a further data set the test system is DUKX cells. The data set can be described thus: growth inhibition of c-myc-expressing tumor cells. In kind it is cell-based, Chinese hamsters. The source says:
a) DUKX cells (ovarian carcinoma cells from Chinese hamsters) which over-express "c-myc" products, were cultivated according to standard conditions, two comparative groups being grown.

The next data set relates to g-UVW cells. The data set can be described thus: antineoplastic effect on human anaplastic astrocytoma cells (Table 1, Example 3). In kind it is cell-based. From the text:
The process as per Example 2 was repeated with the exception that cells of the 6-UVW line from human anaplastic astrocytoma were used and enriched in DMEM:HAM's F 12 medium (1:1) with L-glutamine and 10% FCS.

A further data set deals with TP 410 N cells. Nature of the data set: growth curve, neuroblastoma cells. It counts as cell-based, human. The following applies: for Cell count: 25 μM/ml. How it is done: (§1) The neuroblastoma cell line and the three glioblastoma cell lines were cultivated in Ham's F10 medium enriched with 10% fetal calf serum (FCS) and the usual quantity of penicillin, streptomycin (Pen/Strep) and glutamine. The epidermoidal cell line was cultivated in modified Eagle's Medium (MEM), likewise enriched with 10% (FCS) and the usual quantity of glutamine and Pen/Strep.
(§2) In each case 5×10^4 cells were plated out in T25 bottles, the untreated cells being incubated in analogous conditions as control. The cell count was microscopically determined after 3, 5, 7, 10 and 12 days.

Data set [2] has as its system U 178 MG, TP 410 N, TP 242 MG, TP 336 MG and A 431 cells. The data set can be described thus: growth curves of five tumor cell lines, comparison with coumarin. It counts as cell-based, human. The following applies: corresponding concentrations, up to 12 days. How it is done:
as §1, §2

Data set [3] relates to LNCap cells. Nature of the data set: growth inhibition of prostatic carcinoma cells (Table 1). It counts as cell-based, human. The following applies: 250 μmol/ml, after 10 days.
Data set [4] in a line: tolerance study in patients with malignant tumors. It counts as in vivo, human. From the text: Over 8 consecutive weeks the patients were examined once a week for signs of systemic toxicity and organic dysfunctions.
In data set [5] the test system is U 178 MG, TP 410 N, TP 242 MG, TP 336 MG and A 431 cells. The following applies: 37.5 μM/ml, 48 hours. How it is done: as §1
Untreated cells served as a control. Subsequently, the cells were incubated for 8 hours with ^3 H-thymidine. The radioactivity absorbed by the cells was measured in the usual way.

Data set [6] has as its system LNCap cells. The data set can be described thus: cell growth, combination with TNF. It counts as cell-based, human. The following applies: 7-OH-1,2-BP 500 μM/ml; TNF 1 nM/ml; combination 500 μM/1 nM; 6 days; 3×10^4 cells/well; control 61.40 + 3.70.
Description: Various cell lines (DU-145, PC-3 and LNCaP) from prostate carcinomas were used.
Initial cell count: 3×10^4 cells/well; exposure period: DU-145, PC-3: 4 days; LNCaP: 6 days
Another data set relates to EJ cells. Nature of the data set: growth inhibition of bladder carcinoma cells (Table 1). In kind it is cell-based, human. The following applies: 200 μmol/ml, after 10 days.
A further data set concerns MCF 7 cells. Nature of the data set: growth inhibition of breast cancer cells (Table 1, Example 2). In kind it is cell-based, human. From the text:
The MCF 7 cell line from breast cancer was cultivated in DMEM-S 10, enriched with 10% FCS, for 10 days in the usual way.

The next data set concerns PDFG-A gene. Nature of the data set: transcription (mRNA level). In kind it is cell-based. The following applies: Seliger et al., unpublished results; FIG. 8. From the text: (§3) In connection with the neoplastic transformation and increased proliferation rate of glioblastoma cells, two autocrinic loops, the EGF and the PDGF system, are discussed.
The subject of the next data set is PDFG-B gene. The data set can be described thus: transcription (mRNA level). The following applies: Seliger et al., unpublished results; FIG. 8. It counts as cell-based.
Description: as §3

Another data set relates to g-CCM cells. The data set can be described thus: growth inhibition of anaplastic astrocytoma cells (Table 1). It counts as cell-based, human. The following applies: 200 μmol/ml, after 10 days.

As for `O=c1ccc2ccc(O)cc2o1` [7-OH-1,2-BP, 7-hydroxy-1,2-benzopyrone], in [1] (without substance 9/28), the “Tumor incidence (number of mice)” value is on record as 3/38. Besides, in [1] (without substance 32), the Tumor incidence % was found to be 8%. In the data set on DUKX cells (100 μg/ml, 24, 48 and 72 hours, FIG. 10), the “inhibition of cell growth” value is given as “dramatic inhibition of cell growth; also recorded: inhibit the cell growth of tumor cells with oncogene-overexpression”. The “cell growth after removal of substance” value in the data set with DUKX cells (24 hours, then 48 hours in 7-OH-1,2-BP-free medium, FIG. 11b1) was “considerable cell growth”. For the same compound, the “inhibition of cell growth, second cultivation in presence of substance” value in the data set with DUKX cells (24 hours, trypsin, then 48 hours in 7-OH-1,2-BP-containing medium, FIG. 11b2) was “cell growth was virtually completely inhibited”. Moreover, the “% Growth inhibition compared with control” value came out at 40% in the data set on g-UVW cells (200 μmol/ml, after 10 days); 66% in the data set with LNCap cells [3]; 26% in the data set with EJ cells; 64% in the data set on MCF 7 cells (200 μmol/ml, after 10 days); 44% with g-CCM cells. Besides, in the data set on g-UVW cells (Example 3, FIG. 2), the “cytostatic effect on human anaplastic astrocytoma cells” value is listed as “has a cytostatic effect on human anaplastic astrocytoma cells”. For the same compound, the Cell count in the data set on TP 410 N cells (after 3 days, control 25) is recorded as 8 × 10^4; in the data set with TP 410 N cells (after 5 days, control 45), 20 × 10^4; in the data set on TP 410 N cells (after 7 days, control 71) it was 36 × 10^4. Further, the inhibition at 25 µM with TP 410 N cells (Homo sapiens, Neuroblastoma cell, 288 h, 25 μM/ml (Table 2), read-out: % growth inhibition compared with control after 12 days) was found to be 62%. Also, the “growth-inhibiting activity (growth curve) versus control” value in data set [2] is given as “developed growth-inhibiting activity”. Further, in [4] (50 mg/day increased up to 2000 mg/day, 8 weeks, 60 patients), the side-effects entry is listed as “no side-effects at all had occurred”. Also, the toxic side-effects result in data set [4] (long-term administration, 7000 mg/day) is on record as “Toxic side-effects were not observed”. The “cytotoxic / cytostatic effect” value in data set [5] was “not cytotoxic for any of the cells, but cytostatic”. Moreover, the Cell growth with LNCap cells [6] was 11.0 + 1.10. The “cytostatic effect on breast cancer cells” value in the data set on MCF 7 cells (Example 2, FIG. 1) is “clearly show the cytostatic effect”. For the same compound, the “transcription of gene coding for PDFG-A (mRNA level)” value with PDFG-A gene was “inhibited”. Moreover, in the data set with PDFG-B gene, the “transcription of gene coding for PDFG-B (mRNA level)” value is “inhibited”.
